Data on 3 molecules can be found in publication PMC11302729, “Repurposing Hsp90 inhibitors as antimicrobials targeting two-component systems identifies compounds leading to loss of bacterial membrane integrity” (Microbiology Spectrum, 2024).

Each structure is given as a SMILES string. In brackets after ≈: the same amount, converted by molar mass. Several values for one entry are separate records, joined by “and”; a condition that tells them apart may be missing. Identical values can stand only once.

For the first series, the system named is Escherichia coli ATCC 25922. Put plainly: MIC (microdilution) against E. coli. The class given is cell-based. The following applies: Escherichia coli, ATCC25922; Table 1; read-out: MIC E. coli. In outline: (§1)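 EUCAST broth microdilution in Mueller-Hinton broth, twofold compound dilutions from 50 to 0.39 µg/mL, inoculum a 1:100 dilution of overnight culture. Incubated 18 h at 37°C; MIC taken as lowest concentration with no growth by OD600.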
For the molecule `COc1ccc(-c2[nH]nc(C(F)(F)F)c2-c2ccc(Cl)cc2)c(O)c1` [DPP-6], the MIC (usually the least concentration at which growth counts as inhibited) was over 250 µg/mL.

Consider `Oc1ccc(-c2n[nH]c(C(F)(F)F)c2-c2ccc(Cl)cc2)c(O)c1` [DPP-5], for which the MIC is 50 µg/mL (≈ 141 µM).

As to `CCOc1ccc(-c2[nH]nc(C(F)(F)F)c2-c2ccc(Cl)cc2)c(O)c1` [DPP-7], the MIC was over 250 µg/mL.

Staying with this series, now noted: Table ST1.
In the case of `COc1ccc(-c2[nH]nc(C(F)(F)F)c2-c2ccc(Cl)cc2)c(O)c1` [DPP-6], the “MIC E. coli” value was over 250 µg/mL.

`Oc1ccc(-c2n[nH]c(C(F)(F)F)c2-c2ccc(Cl)cc2)c(O)c1` [DPP-5]: the “MIC E. coli” value stood at 50 µg/mL (≈ 141 µM).

For the molecule `CCOc1ccc(-c2[nH]nc(C(F)(F)F)c2-c2ccc(Cl)cc2)c(O)c1` [DPP-7], the “MIC E. coli” value is over 250 µg/mL.

Another series has as its system Enterococcus faecalis vanA (strain E0155). Put plainly: MIC (microdilution) against E. faecalis. The class given is cell-based. The following applies: Enterococcus faecalis, read-out: MIC E. faecalis. The procedure, abridged:
as §1
On the technique in general: Broth dilution looks for growth in wells or tubes with falling amounts of substance.
Regarding `COc1ccc(-c2[nH]nc(C(F)(F)F)c2-c2ccc(Cl)cc2)c(O)c1` [DPP-6], the MIC amounted to 6.25 µg/mL (≈ 16.9 µM).

Take `Oc1ccc(-c2n[nH]c(C(F)(F)F)c2-c2ccc(Cl)cc2)c(O)c1` [DPP-5]: the MIC worked out at 12.5 µg/mL (≈ 35.2 µM).

On to `CCOc1ccc(-c2[nH]nc(C(F)(F)F)c2-c2ccc(Cl)cc2)c(O)c1` [DPP-7], for which the MIC worked out at 3.12 µg/mL (≈ 8.15 µM).

Still in this series, the particulars now being: Table ST1.
For `COc1ccc(-c2[nH]nc(C(F)(F)F)c2-c2ccc(Cl)cc2)c(O)c1` [DPP-6], the “MIC E. faecalis” value stood at 6.25 µg/mL (≈ 16.9 µM).

With `Oc1ccc(-c2n[nH]c(C(F)(F)F)c2-c2ccc(Cl)cc2)c(O)c1` [DPP-5], the “MIC E. faecalis” value was determined as 12.5 µg/mL (≈ 35.2 µM).

Turning to `CCOc1ccc(-c2[nH]nc(C(F)(F)F)c2-c2ccc(Cl)cc2)c(O)c1` [DPP-7], the “MIC E. faecalis” value was 3.12 µg/mL (≈ 8.15 µM).

The test system of the next series is Staphylococcus aureus str. Newman. Put plainly: Minimal inhibitory concentration (microdilution) against S. aureus. It is filed as cell-based. The settings on record: Staphylococcus aureus, NEWMAN; Fig 2. In outline: as §1
`COc1ccc(-c2[nH]nc(C(F)(F)F)c2-c2ccc(Cl)cc2)c(O)c1` [DPP-6] returned an MIC of 3.12 µg/mL.

In the case of `Oc1ccc(-c2n[nH]c(C(F)(F)F)c2-c2ccc(Cl)cc2)c(O)c1` [DPP-5], the MIC amounted to 3.12 µg/mL.

`CCOc1ccc(-c2[nH]nc(C(F)(F)F)c2-c2ccc(Cl)cc2)c(O)c1` [DPP-7] came in with a minimum inhibitory concentration (MIC) of 3.12 µg/mL.

The series is the same for the next values; noted with them: Staphylococcus aureus, NEWMAN; Fig 2, value in parentheses.
Turning to `COc1ccc(-c2[nH]nc(C(F)(F)F)c2-c2ccc(Cl)cc2)c(O)c1` [DPP-6], the MIC amounted to 8.43 µM.

Consider `Oc1ccc(-c2n[nH]c(C(F)(F)F)c2-c2ccc(Cl)cc2)c(O)c1` [DPP-5], for which the MIC came out at 8.79 µM.

With `CCOc1ccc(-c2[nH]nc(C(F)(F)F)c2-c2ccc(Cl)cc2)c(O)c1` [DPP-7], the MIC is 8.21 µM.

The series is the same for the next values; noted with them: Table ST3.
As for `COc1ccc(-c2[nH]nc(C(F)(F)F)c2-c2ccc(Cl)cc2)c(O)c1` [DPP-6], the “MIC S. aureus” value amounted to 3.12 µg/mL (≈ 8.46 µM).

For the molecule `Oc1ccc(-c2n[nH]c(C(F)(F)F)c2-c2ccc(Cl)cc2)c(O)c1` [DPP-5], the “MIC S. aureus” value was 3.12 µg/mL (≈ 8.8 µM).

As to `CCOc1ccc(-c2[nH]nc(C(F)(F)F)c2-c2ccc(Cl)cc2)c(O)c1` [DPP-7], the “MIC S. aureus” value was 3.12 µg/mL (≈ 8.15 µM).

Staying with this series, now noted: Table ST3, value in parentheses.
Regarding `COc1ccc(-c2[nH]nc(C(F)(F)F)c2-c2ccc(Cl)cc2)c(O)c1` [DPP-6], the MIC amounted to 8.43 µM.

As for `Oc1ccc(-c2n[nH]c(C(F)(F)F)c2-c2ccc(Cl)cc2)c(O)c1` [DPP-5], the MIC is on record as 8.79 µM.

Consider `CCOc1ccc(-c2[nH]nc(C(F)(F)F)c2-c2ccc(Cl)cc2)c(O)c1` [DPP-7], for which the MIC came out at 8.21 µM.

The test system of a further series is S. aureus str. Newman. Put plainly: Membrane permeability using SYTOX-Green, flow cytometry. The following applies: 0.5× MIC, 5 min exposure. It is filed as cell-based. The procedure, abridged: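 Exponential-phase cells (OD600 0.4) in MHB were exposed to compound, pelleted into PBS, and stained with 0.5 µM SYTOX Green for 5 min in the dark. After washing off unbound dye, uptake was read by flow cytometry in the FITC channel, 488 nm excitation. Nisin and novobiocin served as positive and negative permeabilization controls.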
In general terms: A flow cytometer gives signals particle by particle.
`COc1ccc(-c2[nH]nc(C(F)(F)F)c2-c2ccc(Cl)cc2)c(O)c1` [DPP-6]: the “% FITC stained bacteria 0.5 xMIC” value worked out at 36.93%.

For the molecule `Oc1ccc(-c2n[nH]c(C(F)(F)F)c2-c2ccc(Cl)cc2)c(O)c1` [DPP-5], the “% FITC stained bacteria 0.5 xMIC” value was 13.40%.

As to `CCOc1ccc(-c2[nH]nc(C(F)(F)F)c2-c2ccc(Cl)cc2)c(O)c1` [DPP-7], the “% FITC stained bacteria 0.5 xMIC” value was determined as 42.44%.

The series is the same for the next values; noted with them: 1× MIC, 5 min exposure.
On to `COc1ccc(-c2[nH]nc(C(F)(F)F)c2-c2ccc(Cl)cc2)c(O)c1` [DPP-6], for which the “% FITC stained bacteria 1 xMIC” value stood at 44.48%.

With `Oc1ccc(-c2n[nH]c(C(F)(F)F)c2-c2ccc(Cl)cc2)c(O)c1` [DPP-5], the “% FITC stained bacteria 1 xMIC” value was determined as 13.42% and the “Loss of membrane integrity” value is given as “did not cause significant loss of membrane integrity”.

For `CCOc1ccc(-c2[nH]nc(C(F)(F)F)c2-c2ccc(Cl)cc2)c(O)c1` [DPP-7], the “% FITC stained bacteria 1 xMIC” value was found to be 50.30%.

Still in this series, the particulars now being: 2× MIC, 5 min exposure.
Regarding `COc1ccc(-c2[nH]nc(C(F)(F)F)c2-c2ccc(Cl)cc2)c(O)c1` [DPP-6], the “% FITC stained bacteria 2 xMIC” value was 48.91%.

For `Oc1ccc(-c2n[nH]c(C(F)(F)F)c2-c2ccc(Cl)cc2)c(O)c1` [DPP-5], the “% FITC stained bacteria 2 xMIC” value is 41.29%.

For the molecule `CCOc1ccc(-c2[nH]nc(C(F)(F)F)c2-c2ccc(Cl)cc2)c(O)c1` [DPP-7], the “% FITC stained bacteria 2 xMIC” value turned out to be 54.59%.

Still in this series, the particulars now being: if considered to cause membrane damage to S. aureus.
As to `COc1ccc(-c2[nH]nc(C(F)(F)F)c2-c2ccc(Cl)cc2)c(O)c1` [DPP-6], the Membrane damage entry is on record as “YES”.

Take `Oc1ccc(-c2n[nH]c(C(F)(F)F)c2-c2ccc(Cl)cc2)c(O)c1` [DPP-5]: the Membrane damage entry is “MILD”.

In the case of `CCOc1ccc(-c2[nH]nc(C(F)(F)F)c2-c2ccc(Cl)cc2)c(O)c1` [DPP-7], the Membrane damage entry was “YES”.

Tested on in the next series: not listed separately
Kind of series: in vitro. The class given is cell-based. The following applies: human. In outline:
(§2)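 Cytotoxicity was measured in HEK293 cells (5 × 10^4/well, precultured 24 h) exposed 24 h at 37 °C to compounds from a twofold dilution series made at 100–3.2 μg/mL in serum-free, phenol-red-free DMEM. Viability was read with 10% Alamar Blue (45 min, ex 541/em 590 nm) relative to 1% DMSO vehicle. Curves: four-parameter fit, bottom constrained 0.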
For `COc1ccc(-c2[nH]nc(C(F)(F)F)c2-c2ccc(Cl)cc2)c(O)c1` [DPP-6], the 50% cytotoxic concentration (CC50) (as a rule, the concentration at which the toxic effect on the cells reaches its halfway point) at 24 h is 14.3 µg/mL and 38.6 µM.

For the molecule `Oc1ccc(-c2n[nH]c(C(F)(F)F)c2-c2ccc(Cl)cc2)c(O)c1` [DPP-5], the CC50 at 24 h is 12.9 µg/mL and 36.3 µM.

As to `CCOc1ccc(-c2[nH]nc(C(F)(F)F)c2-c2ccc(Cl)cc2)c(O)c1` [DPP-7], the CC50 at 24 h is 10.8 µg/mL and 28.5 µM.

A further series relates to HEK293 cells. Put plainly: in vitro. It is filed as cell-based. The settings on record: LC50/MIC (HEK293 / S. aureus). In outline:
as §2
For `COc1ccc(-c2[nH]nc(C(F)(F)F)c2-c2ccc(Cl)cc2)c(O)c1` [DPP-6], the “Selectivity Index” value is listed as 4.58.

Turning to `Oc1ccc(-c2n[nH]c(C(F)(F)F)c2-c2ccc(Cl)cc2)c(O)c1` [DPP-5], the “Selectivity Index” value is given as 4.13.

Turning to `CCOc1ccc(-c2[nH]nc(C(F)(F)F)c2-c2ccc(Cl)cc2)c(O)c1` [DPP-7], the “Selectivity Index” value was determined as 3.47.

Still in this series, the particulars now being: human, 24 h.
For `COc1ccc(-c2[nH]nc(C(F)(F)F)c2-c2ccc(Cl)cc2)c(O)c1` [DPP-6], the LC20 worked out at 6 µg/mL (≈ 16.3 µM).

`Oc1ccc(-c2n[nH]c(C(F)(F)F)c2-c2ccc(Cl)cc2)c(O)c1` [DPP-5] gave an LC20 of 5 µg/mL (≈ 14.1 µM).

Another series relates to Enterococcus faecium vanA (strain E1654). Kind of series: MIC (microdilution) against E. faecium. It is filed as cell-based. The following applies: Enterococcus faecium, read-out: MIC E. faecium. The procedure, abridged:
as §1
Regarding `COc1ccc(-c2[nH]nc(C(F)(F)F)c2-c2ccc(Cl)cc2)c(O)c1` [DPP-6], the MIC was 6.25 µg/mL (≈ 16.9 µM).

Consider `Oc1ccc(-c2n[nH]c(C(F)(F)F)c2-c2ccc(Cl)cc2)c(O)c1` [DPP-5], for which the MIC is 12.5 µg/mL (≈ 35.2 µM).

With `CCOc1ccc(-c2[nH]nc(C(F)(F)F)c2-c2ccc(Cl)cc2)c(O)c1` [DPP-7], the MIC was 3.12 µg/mL (≈ 8.15 µM).

Staying with this series, now noted: Table ST1.
For the molecule `COc1ccc(-c2[nH]nc(C(F)(F)F)c2-c2ccc(Cl)cc2)c(O)c1` [DPP-6], the “MIC E. faecium” value was determined as 6.25 µg/mL (≈ 16.9 µM).

As for `Oc1ccc(-c2n[nH]c(C(F)(F)F)c2-c2ccc(Cl)cc2)c(O)c1` [DPP-5], the “MIC E. faecium” value was 12.5 µg/mL (≈ 35.2 µM).

For the molecule `CCOc1ccc(-c2[nH]nc(C(F)(F)F)c2-c2ccc(Cl)cc2)c(O)c1` [DPP-7], the “MIC E. faecium” value came out at 3.12 µg/mL (≈ 8.15 µM).

A further series concerns Pseudomonas aeruginosa ATCC 27853. Put plainly: MIC (microdilution) against P. aeruginosa. It is filed as cell-based. The following applies: Pseudomonas aeruginosa, ATCC27853; Table 1; read-out: MIC P. aeruginosa. The procedure, abridged: as §1
Take `COc1ccc(-c2[nH]nc(C(F)(F)F)c2-c2ccc(Cl)cc2)c(O)c1` [DPP-6]: the MIC is over 250 µg/mL.

Regarding `Oc1ccc(-c2n[nH]c(C(F)(F)F)c2-c2ccc(Cl)cc2)c(O)c1` [DPP-5], the MIC is over 250 µg/mL.

For `CCOc1ccc(-c2[nH]nc(C(F)(F)F)c2-c2ccc(Cl)cc2)c(O)c1` [DPP-7], the MIC was over 250 µg/mL.

The series is the same for the next values; noted with them: Table ST1.
Take `COc1ccc(-c2[nH]nc(C(F)(F)F)c2-c2ccc(Cl)cc2)c(O)c1` [DPP-6]: the “MIC P. aeruginosa” value was over 250 µg/mL.

`Oc1ccc(-c2n[nH]c(C(F)(F)F)c2-c2ccc(Cl)cc2)c(O)c1` [DPP-5]: the “MIC P. aeruginosa” value was over 250 µg/mL.

As for `CCOc1ccc(-c2[nH]nc(C(F)(F)F)c2-c2ccc(Cl)cc2)c(O)c1` [DPP-7], the “MIC P. aeruginosa” value was over 250 µg/mL.
